The text below walks through data of US9079913B2, “Spiro-oxindole MDM2 antagonists” (The Regents of the University of Michigan, priority 2009, dated 2015).

Data set [1] can be described thus: In vitro microsomal stability, human. Format: in vitro ADME. As to conditions: for Microsomal stability, % remaining: Human microsomes; for microsomal stability (in words) / % of compound remaining when incubated in human liver microsomes with NADPH: human liver microsomes. On the technique in general: Liver microsomes are vesicles of endoplasmic reticulum, rich in cytochrome P450 enzymes.

Data set [2] is described as follows: In vitro microsomal stability, rat. Format: in vitro ADME. As to conditions: for Microsomal stability, % remaining: Rat microsomes; for microsomal stability (in words) / % of compound remaining when incubated in rat liver microsomes with NADPH: rat liver microsomes.
Data set [3] is described as follows: Microsomal stability study, negative control incubation. The format is in vitro ADME.
Data set [4] is described as follows: In vitro microsomal stability, dog. The format is in vitro ADME. As to conditions: for Microsomal stability, % remaining: Dog microsomes; for microsomal stability (in words): dog microsomes.
Data set [5] deals with Isogenic HCT-116 colon cancer cell lines. In words: cells. Format: cell-based.
Procedure: Cells were seeded in 96-well flat bottom cell culture plates at a density of 2−3×10^3 cells/well with compounds and incubated for 4 days.
For data set [6], the system named is SJSA-1 xenograft tumors. In words: In vivo efficacy, SJSA-1 xenograft model (tumor volume). The note with it: PO 100 mg/kg; for % Tumor Growth Inhib. T/C Control 750 mm^3 D27: Exp. No. 1, SJSA-1 xenograft; for % Tumor Growth Inhib. T/C Control 750 mm^3 D24: Exp. No. 2, SJSA-1 xenograft. Set-up: species or system C.B-17 SCID mice.
Procedure: SJSA-1 tumor cells were harvested with Trypsin (0.05%)-EDTA (0.53 mM) (GIBCO™, Invitrogen Corp.), growth medium added and cells placed on ice. A cell sample was mixed 1:1 with Trypan Blue (GIBCO™, Invitrogen Corp.) and counted on a hemocytometer to determine the number of live/dead cells. Cells were washed once with 1×PBS (GIBCO™, Invitrogen Corp.) and resuspended in PBS. For Matrigel injections, after washing in PBS, cells are resuspended in an ice cold mixture of 1:1 PBS and Matrigel (BD Biosciences, Invitrogen Corp.) for a final Matrigel protein concentration of 5 mg/ml. SJSA-1 tumors were inoculated into C.B-17 SCID mice at 5×10^6 cells in 0.1 ml with Matrigel. Cells were injected s.c. into the flank region of each mouse using a 27 gauge needle.
The size of tumors growing in the mice was measured in two dimensions using calipers. Tumor volume (mm^3)=(A×B2)/2 where A and B are the tumor length and width (in mm), respectively. During treatment, tumor volume and body weight was measured three times a week. […] Mice were kept for an additional 60 days for further observation of tumor growth and toxicity.
Mice with tumors within acceptable size range were randomized into treatment groups of 8 mice for experimental compounds and 10 mice for the Control group. Experimental compounds were given orally, once per day for 2-3 weeks.
In data set [7] the test system is cancer cell lines with wild-type p53 / mutated or deleted p53 (ATCC). In words: Cell growth assay (WST-8), other cancer cell lines. The format is cell-based. On the technique in general: Tetrazolium assays rely on reduction of a dye to a coloured formazan, in cell work by metabolically active cells.
Data set [8] has as its target recombinant human His-tagged MDM2 protein (residues 1-118) (Homo sapiens (Human), UniProt Q00987). The experiment in a line: Fluorescence-polarization MDM2 binding assay.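 For all read-outs here: fluorescence polarization read after three hours of incubation in potassium phosphate buffer containing bovine gamma globulin and Triton X-100.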 The note with it: for IC50: Table 19A, FP binding assay, read-out: MDM2 IC50.
A short description of data set [9]: Pharmacokinetic studies in rats. Format: in vivo, rat. The protocol: Pharmacokinetic studies on MDM2 inhibitors were carried out in rat. For comparison, the MDM2 inhibitor, AT-219, was also studied.
Where [10] appears, read: Homo sapiens, HCT-116, read-out: HCT-116 (p53-/-) IC50, Table 19A, HCT-116 p53-/-, cell growth.
Setting [11] is: Homo sapiens, HCT-116, read-out: HCT-116 (p53 wild-type) IC50, Table 19A, HCT-116 p53 wild-type, cell growth.
The mark [12] stands for this setting: Homo sapiens, LNCaP, Table 19A, LNCAP cells, p53 wild-type, cell growth, read-out: LNCAP (p53 wild-type) IC50.
Setting [13] is: Homo sapiens, PC-3, Table 19A, PC-3 cells, deleted p53, cell growth, read-out: PC-3 (deleted p53) IC50.
Where [14] appears, read: Homo sapiens, SJSA-1, Table 19A, SJSA-1 cells, p53 wild-type, cell growth, read-out: SJSA-1 (p53 wild-type) IC50.

Like-named read-outs stand apart in the source and are kept apart here. Bounds are passed on as bounds.

Chain of recombinant human His-tagged MDM2 protein (residues 1-118) (Q00987 1-118): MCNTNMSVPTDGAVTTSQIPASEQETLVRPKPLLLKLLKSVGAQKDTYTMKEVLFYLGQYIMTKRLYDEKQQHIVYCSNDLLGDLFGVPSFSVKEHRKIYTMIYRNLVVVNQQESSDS

For `CC(C)(C)C[C@H]1N[C@@H](C(=O)NCC[C@H](O)CO)[C@H](c2cccc(Cl)c2F)[C@@]12C(=O)Nc1cc(Cl)ccc12` [MI-147, reference compound], the “Microsomal stability, % remaining” value in data set [1] (0 min) amounted to 100.00%; in data set [1] (5 min), 78.23%; in data set [1] (10 min), 58.01%; in [1] (15 min) it was 41.59%; in [1] (30 min) it was 19.67%; in [1] (45 min) it was 10.81%. The “Microsomal stability, % remaining” value in data set [1] (60 min) worked out at 7.18%; in [2] (0 min) it was 100.00%; in data set [2] (5 min), 68.05%; in data set [2] (10 min) it was 31.04%; in [2] (15 min), 16.85%; in [2] (30 min) it was 6.18%. Moreover, the “Microsomal stability, % remaining” value was found to be 4.40% in [2] (45 min); 3.43% in data set [2] (60 min); 100.00% in data set [3] (0 min); 94.73% in [3] (5 min); 90.77% in [3] (10 min); 93.43% in data set [3] (15 min). Besides, the “Microsomal stability, % remaining” value in [3] (30 min) is recorded as 94.14%; in data set [3] (45 min), 91.07%; in data set [3] (60 min) it was 85.38%; in data set [4] (0 min), 100.00%; in [4] (5 min), 77.84%; in [4] (10 min) it was 47.98%. Further, the “Microsomal stability, % remaining” value in data set [4] (15 min) amounted to 44.83%; in data set [4] (30 min) it was 21.52%; in [4] (45 min), 17.08%; in data set [4] (60 min), 12.15%. The “microsomal stability (in words)” value in data set [1], in [2] and in data set [4] was “metabolized fairly rapidly” each time.
Consider `CC(C)(C)C[C@H]1N[C@@H](C(=O)NCC[C@H](O)CO)[C@H](c2ccc(F)c(Cl)c2)[C@@]12C(=O)Nc1cc(Cl)c(F)cc12` [MI-319, reference compound], for which the “Microsomal stability, % remaining” value in data set [1] (0 min) is 100.00%; in data set [1] (5 min), 82.09%; in data set [1] (10 min), 60.88%; in data set [1] (15 min), 43.86%; in [1] (30 min), 24.79%; in [1] (45 min), 10.66%. For the same molecule, the “Microsomal stability, % remaining” value is 16.31% in data set [1] (60 min); 100.00% in data set [2] (0 min); 64.80% in data set [2] (5 min); 41.96% in [2] (10 min); 30.71% in [2] (15 min); 23.11% in data set [2] (30 min). For the same molecule, the “Microsomal stability, % remaining” value in data set [2] (45 min) came out at 23.01%; in data set [2] (60 min), 24.01%; in [3] (0 min) it was 100.00%; in [3] (5 min), 95.37%; in data set [3] (10 min), 90.75%; in data set [3] (15 min) it was 96.26%. The “Microsomal stability, % remaining” value stood at 86.12% in [3] (30 min); 91.41% in data set [3] (45 min); 85.90% in data set [3] (60 min); 100.00% in [4] (0 min); 108.25% in [4] (5 min); 69.29% in [4] (10 min). The “Microsomal stability, % remaining” value in [4] (15 min) is reported as 57.20%; in data set [4] (30 min), 41.84%; in [4] (45 min), 29.39%; in [4] (60 min), 27.06%. Moreover, the “microsomal stability (in words)” value in data set [1], in [2] and in data set [4] was “metabolized fairly rapidly” throughout.
For the molecule `CC(C)(C)C[C@H]1N[C@@H](C(=O)NCCN2CCN(S(C)(=O)=O)CC2)[C@H](c2cccc(Cl)c2F)[C@@]12C(=O)Nc1cc(Cl)ccc12` [MI-519-49], the IC50 is 12.7 µM in data set [5] (setting [10]); 0.84 µM in data set [5] (setting [11]); 0.85 µM in [7] (setting [12]); 8.1 µM in data set [7] (setting [13]); less than 1 µM in data set [8]. The “% Tumor Growth Inhib. T/C Control 750 mm^3 D27” value in [6] is given as 63.8%.
In the case of `CC(C)(C)C[C@H]1N[C@@H](C(N)=O)[C@H](c2cccc(Cl)c2F)[C@@]12C(=O)Nc1cc(Cl)ccc12` [MI-519-50], the IC50 in data set [5] (setting [10]) was 23.7 µM; in data set [5] (setting [11]), 0.9 ± 0.2 µM; in data set [7] (setting [12]) it was 1.3 ± 0.4 µM; in [7] (setting [13]), 16.9 ± 4.5 µM; in data set [7] (setting [14]), 1.7 ± 1.7 µM; in [8], less than 1 µM. Moreover, the “% Tumor Growth Inhib. T/C Control 750 mm^3 D27” value in [6] worked out at 41.1%.
Turning to `CC(C)(C)C[C@H]1N[C@@H](C(=O)NCC(C)(C)O)[C@H](c2cccc(Cl)c2F)[C@@]12C(=O)Nc1cc(Cl)ccc12` [MI-519-62], the IC50 in data set [5] (Homo sapiens, HCT-116, read-out: HCT-116 (p53-/-) IC50) was more than 10 µM; in data set [5] (Homo sapiens, HCT-116, read-out: HCT-116 (p53 wild-type) IC50), less than 3 µM; in data set [7] (Homo sapiens, LNCaP, read-out: LNCAP (p53 wild-type) IC50) it was less than 3 µM; in data set [7] (Homo sapiens, PC-3, read-out: PC-3 (deleted p53) IC50), more than 10 µM; in [7] (Homo sapiens, SJSA-1, read-out: SJSA-1 (p53 wild-type) IC50), less than 3 µM. Moreover, in [6], the “% Tumor Growth Inhib. T/C Control 750 mm^3 D24” value is on record as 59.5%.
For the molecule `CC(C)(C)C[C@H]1N[C@@H](C(=O)NC2CCC(NS(C)(=O)=O)CC2)[C@H](c2cccc(Cl)c2F)[C@@]12C(=O)Nc1cc(Cl)ccc12` (stereo partly drawn) [MI-771], the IC50 in [5] (setting [11]) is 1 ± 0.3 µM; in data set [5] (read-out: HCT-116 (p53-/-) IC50, Table 19A, HCT-116 p53-/-, cell growth) it was 12 ± 1.1 µM; in data set [7] (setting [12]), 1.1 ± 0.1 µM; in [7] (setting [14]), 1.2 ± 0.3 µM; in data set [7] (Table 19A, PC-3 cells, deleted p53, cell growth, read-out: PC-3 (deleted p53) IC50) it was 13.7 ± 4.4 µM; in data set [8], less than 1 µM. The “microsomal stability (in words)” value in data set [1] and in data set [2] was “very poor microsomal stability” in each case. Besides, the t1/2 in data set [1] (human liver microsomes with NADPH) was determined as 3.12 min; in data set [2] (rat liver microsomes with NADPH), 2.69 min. Moreover, the “% of compound remaining when incubated in human liver microsomes with NADPH” value came to 100.00% in data set [1] (0 min); 27.98% in [1] (5 min); 10.82% in data set [1] (10 min); 4.30% in data set [1] (15 min); 0.82% in [1] (30 min); 0.00% in data set [1] (45 min). Also, in [1] (60 min), the “% of compound remaining when incubated in human liver microsomes with NADPH” value was 0.00%. The CLz in data set [9] (rat, IV, 5 mg/kg, plasma, parent compound) worked out at 36.7 mL/min/kg. In [9] (rat, plasma, iv, 5 mg/kg, rat, IV, 5 mg/kg, plasma, parent compound, read-out: Vz), the Vd is 7.1 L/kg. In addition, in data set [9] (rats, intravenous and oral routes of dosing), the “pharmacokinetic profile (in words)” value is given as “very poor pharmacokinetic profile”. The “% of compound remaining when incubated in rat liver microsomes with NADPH” value in data set [2] (0 min) was 100.00%; in [2] (5 min), 20.48%; in data set [2] (10 min) it was 7.59%; in data set [2] (15 min), 3.57%; in [2] (30 min), 1.22%; in data set [2] (45 min), 0.66%. Further, the “% of compound remaining when incubated in rat liver microsomes with NADPH” value in [2] (60 min) was determined as 0.46%. Further, in [7] (cancer cell lines with wild-type p53), the “cell growth inhibition (in words)” value was “effectively inhibit cell growth”. Besides, the “binding to MDM2 (in words)” value in data set [8] (human MDM2 protein) was “high affinities”.
On to `CC(C)(C)C[C@H]1N[C@@H](C(=O)NC2CCN(S(C)(=O)=O)CC2)[C@H](c2cccc(Cl)c2F)[C@@]12C(=O)Nc1cc(Cl)ccc12` [MI-779], for which the IC50 in data set [5] (setting [10]) is 13.6 µM; in [5] (setting [11]), 2.5 µM; in data set [7] (setting [12]), 1.3 µM; in data set [7] (setting [13]) it was 11.6 µM; in data set [7] (setting [14]) it was 1 µM; in data set [8], less than 0.1 µM. The “% Tumor Growth Inhib. T/C Control 750 mm^3 D24” value in data set [6] came to 66.1%.
